The results in this text go back to paper PMC5304190, “Inhibitory effects of cholinesterase inhibitor donepezil on the Kv1.5 potassium channel” (Scientific Reports, 2017).

What is called IC50 is the midpoint of a concentration-inhibition curve.

The assay concerns the target T1, Kv1.5 (Rattus norvegicus, UniProt P19024).
T1 construct: gene Kcna5; Rat Kv1.5 in pEYFP-N1 vector, expressed in HEK293 cells
Description: whole-cell patch clamp of Kv1.[…] expressed in HEK293 cells. Type of assay: cell-based.

Molecules are shown by their SMILES.

T1 sequence (P19024 whole entry): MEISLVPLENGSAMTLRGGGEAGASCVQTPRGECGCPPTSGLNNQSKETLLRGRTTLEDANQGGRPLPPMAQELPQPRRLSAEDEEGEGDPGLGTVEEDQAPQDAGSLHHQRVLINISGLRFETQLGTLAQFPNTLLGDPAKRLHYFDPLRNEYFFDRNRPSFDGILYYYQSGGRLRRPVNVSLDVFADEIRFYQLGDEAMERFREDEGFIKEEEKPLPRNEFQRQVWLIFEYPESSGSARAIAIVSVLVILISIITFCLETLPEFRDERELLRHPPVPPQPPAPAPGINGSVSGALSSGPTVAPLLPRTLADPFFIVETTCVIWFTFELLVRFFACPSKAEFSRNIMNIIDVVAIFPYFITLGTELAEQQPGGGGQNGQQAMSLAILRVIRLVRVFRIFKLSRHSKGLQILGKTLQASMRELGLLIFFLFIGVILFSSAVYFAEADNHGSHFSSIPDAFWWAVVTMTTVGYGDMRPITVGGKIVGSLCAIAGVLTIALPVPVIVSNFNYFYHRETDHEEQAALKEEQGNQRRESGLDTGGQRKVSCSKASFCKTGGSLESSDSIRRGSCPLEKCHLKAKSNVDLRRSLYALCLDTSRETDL

In the case of `COc1cc2c(cc1OC)C(=O)C(CC1CCN(Cc3ccccc3)CC1)C2` (stereo not shown) [donepezil], the IC50 is 72.5 ± 0.5 µM.
